Laboratory results taken from patent US12673961B2 (Agios Pharmaceuticals, Inc., priority 2022, dated 2026).

biological target: T1, human PAH with the R408W mutation (Homo sapiens, UniProt P00439, R408W); experiment: Cell Based Phenylalanine Flux Assay; design: scale not given here; conditions: A375 cells expressing R408W PAH; 24 hrs with compound, then 20 μM sepiapterin and 800 μM 13C9,15N-Phenylalanine for 4 hours; 13C-Tyrosine in media by LC-MS; average where tested multiple times;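 also: Ten-point dose curve from 2-fold serial dilutions, run in duplicate at 0.5% DMSO final, tracer step used 20 µM sepiapterin and 800 µM labeled phenylalanine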
T1 construct: expressed in transfected cells
T1 sequence (P00439 1-452 R408W): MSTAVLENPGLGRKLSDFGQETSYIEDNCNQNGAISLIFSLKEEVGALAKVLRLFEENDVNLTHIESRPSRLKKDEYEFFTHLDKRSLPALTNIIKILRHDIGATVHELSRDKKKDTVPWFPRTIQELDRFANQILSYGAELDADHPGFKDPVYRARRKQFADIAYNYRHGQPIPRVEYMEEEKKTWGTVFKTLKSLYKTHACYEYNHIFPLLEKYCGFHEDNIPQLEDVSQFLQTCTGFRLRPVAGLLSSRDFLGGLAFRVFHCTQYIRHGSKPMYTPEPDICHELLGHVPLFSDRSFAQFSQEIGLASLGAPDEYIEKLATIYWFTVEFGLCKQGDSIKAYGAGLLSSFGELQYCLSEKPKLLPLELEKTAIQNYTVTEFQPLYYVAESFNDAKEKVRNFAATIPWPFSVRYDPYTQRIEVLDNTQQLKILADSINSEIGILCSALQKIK

Row | AC50 | SMILES
1 | E, E | COc1cccn2nc(C3c4nc[nH]c4CCN3C(=O)c3ccnn3C3CC3)cc12 (stereo not drawn)

same assay, conditions: A375 cells expressing R408W PAH; 24 hrs with compound, then 20 μM sepiapterin and 800 μM 13C9,15N-Phenylalanine for 4 hours; 13C-Tyrosine in media by LC-MS; average where tested multiple times; read-out: AC50

Row | AC50 [µM] | SMILES
2 | 1 to 5 | Cc1nnc(C(=O)N2CCc3[nH]cnc3C2c2cc3cccc(C(F)F)n3n2)o1 (stereo not drawn)
3 | 1 to 5 | c1ccn2nc(C3c4nc[nH]c4CCN3c3nnc(C4CCC4)o3)cc2c1 (single isomer, unassigned)

same assay, conditions: A375 cells expressing human R408W PAH; 24 hrs compound incubation; 13C-Tyrosine by LC-MS; average where tested multiple times; read-out: AC50

Row | AC50 [µM] | SMILES
4 | < 0.5 | O=C(c1nnc(-c2cnccn2)o1)N1CCc2[nH]cnc2[C@H]1c1cc2cccc(Cl)n2n1 [Example 979, (S)-(4-(7-chloropyrazolo [1,5-a]pyridin-2-yl)-6,7-dihydro-1H-imidazo[4,5-c]pyridin-5(4H)-yl)(5-(pyrazin-2-yl)-1,3,4-oxadiazol-2-yl)methanone]
5 | 0.5 to 1 | O=C(c1nnc(-c2ccncn2)o1)N1CCc2[nH]cnc2[C@H]1c1cc2c(F)cccn2n1 [Example 1258, (S)-(4-(4-fluoropyrazolo[1,5-a]pyridin-2-yl)-6,7-dihydro-1H-imidazo[4,5-c]pyridin-5(4H)-yl)(5-(pyrimidin-4-yl)-1,3,4-oxadiazol-2-yl)methanone]
6 | > 5 | Cn1ccc(-c2nnc(C(=O)N3CCc4[nH]cnc4[C@@H]3c3cc4c(C(F)F)cccn4n3)o2)n1 [Example 1353, (R)-(4-(4-(difluoromethyl)pyrazolo[1,5-a]pyridin-2-yl)-6,7-dihydro-1H-imidazo [4,5-c]pyridin-5(4H)-yl)(5-(1-methyl-1H-pyrazol-3-yl)-1,3,4-oxadiazol-2-yl)methanone]

Second part, the compound before the results:

Row | SMILES | AC50 [µM]
7 | Cc1ncoc1C(=O)N1CCc2[nH]cnc2[C@H]1c1cc2cccc(C(F)(F)F)n2n1 [Example 1198] | 0.5 to 1
8 | Cc1ccc2cc([C@@H]3c4nc[nH]c4CCN3C(=O)c3nnc(C(C)(C)C)o3)nn2c1 [Example 1110, (S)-(5-(tert-butyl)-1,3,4-oxadiazol-2-yl)(4-(6-methylpyrazolo[1,5-a]pyridin-2-yl)-6,7-dihydro-1H-imidazo[4,5-c]pyridin-5(4H)-yl)methanone] | 0.5 to 1
9 | CC(C)(C#N)c1nc(C(F)F)c(C(=O)N2CCc3[nH]cnc3[C@@H]2c2cc3ccccn3n2)o1 [Example 698, (R)-2-(4-(difluoromethyl)-5-(4-(pyrazolo[1,5-a]pyridin-2-yl)-4,5,6,7-tetrahydro-1H-imidazo[4,5-c]pyridine-5-carbonyl)oxazol-2-yl)-2-methylpropanenitrile] | 1 to 5
10 | O=C(c1ocnc1C(F)F)N1CCc2[nH]cnc2[C@H]1c1cc2cccc(Cl)n2n1 [Example 958, (S)-(4-(7-chloropyrazolo [1,5-a]pyridin-2-yl)-6,7-dihydro-1H-imidazo[4,5-c]pyridin-5(4H)-yl)(4-(difluoromethyl)oxazol-5-yl)methanone] | < 0.5

same assay, conditions: A375 cells expressing human R408W PAH; 24 hrs with compound, then sepiapterin and 13C9,15N-Phenylalanine for 4 hours; 13C-Tyrosine by LC-MS; average where tested multiple times; read-out: AC50

Row | AC50 [µM] | SMILES
11 | 0.5 to 1 | O=C(c1nnc(-c2cnccn2)o1)N1CCc2[nH]cnc2[C@H]1c1cc2c(C3CC3)cccn2n1 [Example 1857, (S)-(4-(4-cyclopropylpyrazolo [1,5-a]pyridin-2-yl)-1,4,6,7-tetrahydro-5H-imidazo[4,5-c]pyridin-5-yl)(5-(pyrazin-2-yl)-1,3,4-oxadiazol-2-yl)methanone]
12 | < 0.5 | O=C(c1cnc(-c2ccccn2)o1)N1CCc2[nH]cnc2C1c1cc2c(C(F)(F)F)cccn2n1 (stereo in doubt) [Example 2036, (S)-(2-(pyridin-2-yl)oxazol-5-yl)(4-(4-(trifluoromethyl)pyrazolo [1,5-a]pyridin-2-yl)-1,4,6,7-tetrahydro-5H-imidazo[4,5-c]pyridin-5-yl)methanone]
13 | 1 to 5 | O=C(c1ocnc1C1CC1)N1CCc2[nH]cnc2[C@@H]1c1cc2c(C(F)(F)F)cccn2n1 [Example 2015, (R)-(4-cyclopropyloxazol-5-yl)(4-(4-(trifluoromethyl)pyrazolo [1,5-a]pyridin-2-yl)-1,4,6,7-tetrahydro-5H-imidazo[4,5-c]pyridin-5-yl)methanone]
14 | > 5 | CC(C)c1cccn2nc([C@H]3c4nc[nH]c4CCN3c3nnc(-c4cnccn4)o3)cc12 [Example 2176, (R)-2-(4-(4-isopropylpyrazolo [1,5-a]pyridin-2-yl)-1,4,6,7-tetrahydro-5H-imidazo [4,5-c]pyridin-5-yl)-5-(pyrazin-2-yl)-1,3,4-oxadiazole]
15 | < 0.5 | O=C(c1nnc(C2CC2)o1)N1CCc2[nH]cnc2[C@H]1c1cc2c(OC(F)(F)F)cccn2n1 [Example 1724, (S)-(5-cyclopropyl-1,3,4-oxadiazol-2-yl)(4-(4-(trifluoromethoxy)pyrazolo [1,5-a]pyridin-2-yl)-6,7-dihydro-1H-imidazo[4,5-c]pyridin-5(4H)-yl)methanone]
16 | < 0.5 | Cc1cccc(-c2nnc(C(=O)N3CCc4[nH]cnc4[C@H]3c3cc4c(C(F)(F)F)cccn4n3)o2)n1 [Example 1433, (S)-(5-(6-methylpyridin-2-yl)-1,3,4-oxadiazol-2-yl)(4-(4-(trifluoromethyl)pyrazolo [1,5-a]pyridin-2-yl)-6,7-dihydro-1H-imidazo[4,5-c]pyridin-5(4H)-yl)methanone]
17 | < 0.5 | COc1ccc(-c2nnc(C(=O)N3CCc4[nH]cnc4[C@H]3c3cc4c(C(F)F)cccn4n3)o2)nc1 [Example 1424, (S)-(4-(4-(difluoromethyl)pyrazolo[1,5-a]pyridin-2-yl)-6,7-dihydro-1H-imidazo [4,5-c]pyridin-5(4H)-yl)(5-(5-methoxypyridin-2-yl)-1,3,4-oxadiazol-2-yl)methanone]
18 | < 0.5 | Cc1cccc(-c2nnc(C(=O)N3CCc4[nH]cnc4[C@H]3c3cc4c(Cl)cccn4n3)o2)n1 [Example 1431, (S)-(4-(4-chloropyrazolo [1,5-a]pyridin-2-yl)-6,7-dihydro-1H-imidazo[4,5-c]pyridin-5(4H)-yl)(5-(6-methylpyridin-2-yl)-1,3,4-oxadiazol-2-yl)methanone]
19 | < 0.5 | Cc1cccn2nc([C@@H]3c4nc[nH]c4CCN3C(=O)c3cnc(C(C)(C)F)o3)cc12 [Example 1959, (S)-(2-(2-fluoropropan-2-yl)oxazol-5-yl)(4-(4-methylpyrazolo[1,5-a]pyridin-2-yl)-1,4,6,7-tetrahydro-5H-imidazo[4,5-c]pyridin-5-yl)methanone]
20 | < 0.5 | O=C(c1nnc(-c2ccccn2)s1)N1CCc2[nH]cnc2[C@H]1c1cc2c(F)cccn2n1 [Example 1968, (S)-(4-(4-fluoropyrazolo [1,5-a]pyridin-2-yl)-1,4,6,7-tetrahydro-5H-imidazo[4,5-c]pyridin-5-yl)(5-(pyridin-2-yl)-1,3,4-thiadiazol-2-yl) methanone]
21 | > 5 | Cc1cc(-c2nnc(C(=O)N3CCc4[nH]cnc4[C@@H]3c3cc4cccc(C(F)F)n4n3)o2)nn1C [Example 1536, (R)-(4-(7-(difluoromethyl)pyrazolo[1,5-a]pyridin-2-yl)-6,7-dihydro-1H-imidazo[4,5-c]pyridin-5(4H)-yl)(5-(1,5-dimethyl-1H-pyrazol-3-yl)-1,3,4-oxadiazol-2-yl)methanone]

Further lines, the compound ahead of its results:

Row | SMILES | AC50 [µM]
22 | Cc1ncccc1-c1nnc(N2CCc3[nH]cnc3[C@H]2c2cc3c(C)cccn3n2)o1 [Example 2206, (S)-2-(4-(4-methylpyrazolo [1,5-a]pyridin-2-yl)-1,4,6,7-tetrahydro-5H-imidazo [4,5-c]pyridin-5-yl)-5-(2-methylpyridin-3-yl)-1,3,4-oxadiazole] | 0.5 to 1
23 | O=C(c1nnc(-c2cnn(C(F)(F)F)c2)o1)N1CCc2[nH]cnc2[C@H]1c1cc2cccc(C(F)(F)F)n2n1 [Example 2428, (S)-(5-(1-(trifluoromethyl)-1H-pyrazol-4-yl)-1,3,4-oxadiazol-2-yl)(4-(7-(trifluoromethyl)pyrazolo[1,5-a]pyridin-2-yl)-6,7-dihydro-1H-imidazo[4,5-c]pyridin-5(4H)-yl)methanone] | 1 to 5
24 | Cc1ccc2c(C(=O)N3CCc4[nH]cnc4[C@H]3c3cc4c(C(F)(F)F)cccn4n3)cnn2c1 [Example 1666, (S)-(6-methylpyrazolo [1,5-a]pyridin-3-yl)(4-(4-(trifluoromethyl)pyrazolo [1,5-a]pyridin-2-yl)-6,7-dihydro-1H-imidazo[4,5-c]pyridin-5(4H)-yl)methanone] | 0.5 to 1
25 | CC(C)c1cccn2nc([C@@H]3c4nc[nH]c4CCN3c3nnc(C4(C)CC4)o3)cc12 [Example 2229, (S)-2-(4-(4-isopropylpyrazolo [1,5-a]pyridin-2-yl)-1,4,6,7-tetrahydro-5H-imidazo [4,5-c]pyridin-5-yl)-5-(1-methylcyclopropyl)-1,3,4-oxadiazole] | < 0.5
26 | Cc1ncccc1-c1nnc(N2CCc3[nH]cnc3[C@@H]2c2cc3c(F)cccn3n2)o1 [Example 2213, (R)-2-(4-(4-fluoropyrazolo [1,5-a]pyridin-2-yl)-1,4,6,7-tetrahydro-5H-imidazo [4,5-c]pyridin-5-yl)-5-(2-methylpyridin-3-yl)-1,3,4-oxadiazole] | > 5
27 | Cc1ncccc1-c1nnc(N2CCc3[nH]cnc3[C@H]2c2cc3c(F)cccn3n2)o1 [Example 2212, (S)-2-(4-(4-fluoropyrazolo [1,5-a]pyridin-2-yl)-1,4,6,7-tetrahydro-5H-imidazo [4,5-c]pyridin-5-yl)-5-(2-methylpyridin-3-yl)-1,3,4-oxadiazole] | < 0.5
